From ChEMBL document CHEMBL1201862, “PubChem BioAssay data set” (2004)
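All cell lines were grown in 96-well plates and treated with compound for 48 hours. GI50 = concentration required for 50% inhibition of growth.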 Active and inactive are the calls of the source. Rule as the data show it: active = GI50 up to about 1.1 µM and inactive = higher.

Assays:
Assay in all cases: NCI tumour cell line growth inhibition, 48 h
BT-549 = system: BT-549
DMS-273 = system: DMS-273
DLD-1 = system: DLD-1
XF498 = system: XF498
HOP-18 = system: HOP-18
M19-MEL = system: M19-MEL
DMS-114 = system: DMS-114
SNB-78 = system: SNB-78

Cn1c(=O)oc2cc(C(O)CN3CCN(Cc4ccc5c(c4)OCO5)CC3)ccc21 (stereo unspecified)
GI50 (BT-549): > 100 µM (inactive)

CC(C)(C)[Si](C)(C)OCC1OC(n2ccc(=O)[nH]c2=O)C(O[Si](C)(C)C(C)(C)C)[C@]12O[C@@H]2CO (stereo partly specified)
GI50 (BT-549): 3.9 µM (inactive)

C=CCC1CC(n2cc(C)c(=O)[nH]c2=O)OC1CO[Si](C)(C)C(C)(C)C (stereo unspecified)
GI50 (BT-549): 16 µM (inactive)

CCCCCCCCCCCCCCCCNc1nc(=O)n(C2CC(O)C(CO)O2)cc1F (stereo unspecified)
GI50 (BT-549): 16.3 µM (inactive)

O=C(/C=C/c1ccccc1)CCN1CCOCC1
GI50 (DMS-273): 16.9 µM (inactive)
GI50 (DLD-1): 9.29 µM (inactive)
GI50 (XF498): 14.7 µM (inactive)
GI50 (HOP-18): 17.7 µM (inactive)
GI50 (M19-MEL): 14.6 µM (inactive)
GI50 (DMS-114): 9.25 µM (inactive)
GI50 (SNB-78): 19 µM (inactive)
GI50 (BT-549): 12.6 µM (inactive)

C[Si](C)(C)C1(Sc2ccccc2)SCCCS1
GI50 (DMS-273): 35.2 µM (inactive)
GI50 (DLD-1): 32 µM (inactive)
GI50 (XF498): 28.4 µM (inactive)
GI50 (M19-MEL): 34 µM (inactive)
GI50 (DMS-114): 25.8 µM (inactive)
GI50 (SNB-78): 51.8 µM (inactive)

c1ccc(Nc2nn3c(CCCCCCCCc4nnc5sc(Nc6ccccc6)nn45)nnc3s2)cc1
GI50 (BT-549): 31.5 µM (inactive)

O=C(NCCCCCCNC(=O)n1cc(F)c(=O)[nH]c1=O)NCCCOCCOCCOCCOCCOCCOCCOCCOCCOCCOCCOCCOCCOCCOCCOCCOCCOCCOCCOCCOCCOCCCNC(=O)C(O)C(O)C(O)C(O)CO (stereo unspecified)
GI50 (DMS-273): 33.3 µM (inactive)
GI50 (DLD-1): 9.33 µM (inactive)
GI50 (XF498): 15.6 µM (inactive)
GI50 (HOP-18): > 100 µM (inactive)
GI50 (M19-MEL): 61.7 µM (inactive)
GI50 (DMS-114): > 100 µM (inactive)
GI50 (SNB-78): > 100 µM (inactive)
GI50 (BT-549): 37.7 µM (inactive)

CC(C)C(=O)OCC1CCCN2CCCCC12 (stereo unspecified)
GI50 (BT-549): 21.5 µM (inactive)

O=C(O)c1cccc(OCCO)c1
GI50 (BT-549): > 100 µM (inactive)

CC(=O)Oc1c2c(c(O)c3ccccc13)C(n1cnc3c(ncn3C3OC(CO)C4OC(C)(C)OC43)c1=N)CCC2 (stereo unspecified)
GI50 (DMS-273): 18.1 µM (inactive)
GI50 (DLD-1): 13.1 µM (inactive)
GI50 (HOP-18): 20.3 µM (inactive)
GI50 (M19-MEL): 11.6 µM (inactive)
GI50 (DMS-114): 6.44 µM (inactive)
GI50 (SNB-78): 23 µM (inactive)

CC(=O)NC(CS/N=N/c1[nH]cnc1C(N)=O)C(=O)O (stereo unspecified)
GI50 (BT-549): 53 µM (inactive)

c1ccc2c(c1)c(N1CCCCC1)cc1nc3c(cc(N4CCCCC4)c4ccccc43)nc12
GI50 (BT-549): > 100 µM (inactive)

CO[C@H]1[C@@H](O)[C@@H](O)O[C@@H](O[C@H]2CC[C@@]3(C)[C@H](CC[C@@H]4[C@@H]3[C@H](O)C[C@]3(C)[C@@H](C5=CC(=O)OC5)CC[C@]43O)C2)[C@@H]1O
GI50 (BT-549): 0.151 µM (active)

CC1=NN(c2ccccc2)C(=O)/C1=C\c1c(C)[nH]n(-c2ccccc2)c1=O
GI50 (BT-549): > 100 µM (inactive)

O=C1Sc2ccc(Br)cc2C(=O)Sc2ccccc21
GI50 (BT-549): 12.5 µM (inactive)

C/C=C(/C)C(=O)O[C@@H]1CCN2CC[C@H](COC(=O)/C(=C/C)CO)C12 (stereo partly specified)
GI50 (BT-549): > 100 µM (inactive)

COc1ccccc1/C=C/c1c(N)ncnc1Nc1cccc(Cl)c1
GI50 (BT-549): 19.7 µM (inactive)

CC(=O)O[C@@H]1CC2[C@@H](CCC3Cc4nc5c(nc4C[C@@]32C)CC2CC[C@@H]3C(CC[C@@]4(C)C3CC[C@@H]4C(C)CCCC(C)C)[C@@]2(C)C5)C2C[C@@H]3OC4(CCC(C)CO4)C(C)[C@@H]3[C@]21C (stereo partly specified)
GI50 (BT-549): > 100 µM (inactive)

C#C[C@]1(O)[C@@H](CO)O[C@@H](n2ccc(N)nc2=O)[C@@H]1O
GI50 (BT-549): 0.0834 µM (active)

CCOC(=O)c1cc2c(OC(C)=O)ccc(OC(C)=O)c2s1
GI50 (BT-549): 2.13 µM (inactive)

Cc1cc(C)nc(NS(=O)(=O)c2ccc(NNc3c4ccccc4nc4c(C(=O)Nc5ccc(S(N)(=O)=O)cc5)cccc34)cc2)n1
GI50 (BT-549): 34.8 µM (inactive)

COC(=O)C(=O)C(CC(=O)Nc1cccc(C(F)(F)F)c1)C(=O)OC (stereo unspecified)
GI50 (DLD-1): > 100 µM (inactive)
GI50 (M19-MEL): > 100 µM (inactive)
GI50 (DMS-114): > 100 µM (inactive)
GI50 (SNB-78): > 100 µM (inactive)

CC(C#N)c1cn(S(=O)(=O)c2ccccc2)c2ccccc12 (stereo unspecified)
GI50 (DMS-273): 45.6 µM (inactive)
GI50 (DLD-1): 55.3 µM (inactive)
GI50 (XF498): > 100 µM (inactive)
GI50 (M19-MEL): 42.5 µM (inactive)
GI50 (DMS-114): 46.5 µM (inactive)

[N-]=[N+]=CC(=O)CCC(N)C(=O)O (stereo unspecified)
GI50 (DMS-273): 1.09 µM (active)
GI50 (DLD-1): 1.02 µM (active)
GI50 (XF498): 22 µM (inactive)
GI50 (HOP-18): 43.3 µM (inactive)
GI50 (M19-MEL): 1.59 µM (inactive)
GI50 (DMS-114): 1.87 µM (inactive)
GI50 (SNB-78): 4.25 µM (inactive)
GI50 (BT-549): 34.6 µM (inactive)

COc1ccc(CNc2nc(NCc3ccc(OC)cc3)nc(NC3CCCCC3)n2)cc1
GI50 (BT-549): 4.08 µM (inactive)

O=C1OC(C2Cc3ccc4c(c3C2=O)CCC4)c2ccccc21 (stereo unspecified)
GI50 (BT-549): 42.1 µM (inactive)

COc1ccc2ccc([Se]c3ccc4ccc(OC)cc4c3)cc2c1
GI50 (DMS-273): > 100 µM (inactive)
GI50 (DLD-1): > 100 µM (inactive)
GI50 (XF498): 43 µM (inactive)
GI50 (HOP-18): 28.9 µM (inactive)
GI50 (M19-MEL): > 100 µM (inactive)
GI50 (DMS-114): 64 µM (inactive)
GI50 (SNB-78): 53.6 µM (inactive)

OCC1c2ccccc2-n2nc(-c3ccccc3)c(O)c21 (stereo unspecified)
GI50 (BT-549): 20 µM (inactive)

CC(C)(C)C(=O)O[C@H]1C=C[C@@H](O)[C@@H]2[C@H]1[C@@H]1C=C[C@H]2C1
GI50 (BT-549): 3.87 µM (inactive)

CN(C)c1ccc(C2CC(c3ccc4ccccc4c3O)=NN2)cc1 (stereo unspecified)
GI50 (BT-549): 39.1 µM (inactive)

Cc1ccc(C[P+]2(c3ccccc3)CCCCC2)cc1.[O-][Cl+3]([O-])([O-])[O-]
GI50 (DMS-273): 35 µM (inactive)
GI50 (DLD-1): 84.3 µM (inactive)
GI50 (XF498): < 0.01 µM (active)
GI50 (M19-MEL): 15.7 µM (inactive)
GI50 (DMS-114): 14.2 µM (inactive)
GI50 (SNB-78): 25.9 µM (inactive)
